Organism: Rattus norvegicus
Experiment: Open TG-GATES - Regimen: Daily Repeat
Assay type: toxicity, organism-based, Sprague-Dawley
Design: regimen Daily Repeat, gender Male, age 6 weeks
Conditions: in vivo, po, 100 mg/kg, route gavage, dose level High; for APTT / Bas / Eos / Fbg / Hb / Ht / Lym / MCH / MCHC / MCV / Mono / Neu / PT / Plat / RBC / Ret / WBC: tissue Blood; for KIDNEY_L / KIDNEY_R / KIDNEY_TOTAL: tissue Kidney; for LIVER: tissue Liver; for A/G / ALP / ALT / AST / BUN / CRE / Ca / Cl / DBIL / GLC / IP / K / LDH / Na / PL / RALB / TBIL / TC / TG / TP / gamma-GTP: tissue Plasma

CCCc1cc(=O)[nH]c(=S)[nH]1 [PROPYLTHIOURACIL]
TERMINAL_BW (72 h, time 3 day): 209.7 g
APTT (72 h, time 3 day): 16 s
Bas (72 h, time 3 day): 0%
Eos (72 h, time 3 day): 0.8%
Fbg (72 h, time 3 day): 238.8 mg/dL
Hb (72 h, time 3 day): 13.2 g/dL
Ht (72 h, time 3 day): 39.6%
Lym (72 h, time 3 day): 80.6%
MCH (72 h, time 3 day): 22 pg
MCHC (72 h, time 3 day): 33.3%
MCV (72 h, time 3 day): 65.9 fL
Mono (72 h, time 3 day): 6.4%
Neu (72 h, time 3 day): 12.2%
PT (72 h, time 3 day): 12.1 s
Plat (72 h, time 3 day): 110 x10_4/uL
RBC (72 h, time 3 day): 601.4 x10_4/ul
Ret (72 h, time 3 day): 7.1%
WBC (72 h, time 3 day): 144 x10_2/uL
KIDNEY_L (72 h, time 3 day): 0.9 g
KIDNEY_R (72 h, time 3 day): 0.9 g
KIDNEY_TOTAL (72 h, time 3 day): 1.8 g
LIVER (72 h, time 3 day): 12.2 g
A/G (72 h, time 3 day): 1.7
ALP (72 h, time 3 day): 870.8 IU/L
ALT (72 h, time 3 day): 36.4 IU/L
AST (72 h, time 3 day): 60.4 IU/L
BUN (72 h, time 3 day): 20.2 mg/dL
CRE (72 h, time 3 day): 0.5 mg/dL
Ca (72 h, time 3 day): 11.5 mg/dL
Cl (72 h, time 3 day): 105.4 meq/L
DBIL (72 h, time 3 day): 0.008 mg/dL
GLC (72 h, time 3 day): 191.6 mg/dL
IP (72 h, time 3 day): 7.1 mg/dL
K (72 h, time 3 day): 4.5 meq/L
LDH (72 h, time 3 day): 181.2 IU/L
Na (72 h, time 3 day): 138.6 meq/L
PL (72 h, time 3 day): 199.6 mg/dL
RALB (72 h, time 3 day): 3.8 g/dL
TBIL (72 h, time 3 day): 0.3 mg/dL
TC (72 h, time 3 day): 116.2 mg/dL
TG (72 h, time 3 day): 94.2 mg/dL
TP (72 h, time 3 day): 6.1 g/dL
gamma-GTP (72 h, time 3 day): 1 IU/L
TERMINAL_BW ([…], time 7 day): 223.8 g
TERMINAL_BW ([…], time 14 day): 241.1 g
TERMINAL_BW ([…], time 28 day): 232 g
APTT ([…], time 7 day): 15.8 s
Bas ([…], time 7 day): 0%
Eos ([…], time 7 day): 1%
Fbg ([…], time 7 day): 239.2 mg/dL
Hb ([…], time 7 day): 13.7 g/dL
Ht ([…], time 7 day): 41.4%
Lym ([…], time 7 day): 81.2%
MCH ([…], time 7 day): 20.9 pg
MCHC ([…], time 7 day): 33.1%
MCV ([…], time 7 day): 63.2 fL
Mono ([…], time 7 day): 5.4%
Neu ([…], time 7 day): 12.4%
PT ([…], time 7 day): 13 s
Plat ([…], time 7 day): 113.5 x10_4/uL
RBC ([…], time 7 day): 655.4 x10_4/ul
Ret ([…], time 7 day): 3.8%
WBC ([…], time 7 day): 123.8 x10_2/uL
APTT ([…], time 14 day): 17 s
Bas ([…], time 14 day): 0%
Eos ([…], time 14 day): 0%
Fbg ([…], time 14 day): 189.4 mg/dL
Hb ([…], time 14 day): 14 g/dL
Ht ([…], time 14 day): 41.9%
Lym ([…], time 14 day): 79.4%
MCH ([…], time 14 day): 20.3 pg
MCHC ([…], time 14 day): 33.3%
MCV ([…], time 14 day): 61.1 fL
Mono ([…], time 14 day): 6.2%
Neu ([…], time 14 day): 14.4%
PT ([…], time 14 day): 13.9 s
Plat ([…], time 14 day): 93.2 x10_4/uL
RBC ([…], time 14 day): 686.2 x10_4/ul
Ret ([…], time 14 day): 1.6%
WBC ([…], time 14 day): 99.7 x10_2/uL
APTT ([…], time 28 day): 15.3 s
Bas ([…], time 28 day): 0%
Eos ([…], time 28 day): 0.8%
Fbg ([…], time 28 day): 180.4 mg/dL
Hb ([…], time 28 day): 15.5 g/dL
Ht ([…], time 28 day): 45.8%
Lym ([…], time 28 day): 84.6%
MCH ([…], time 28 day): 19.6 pg
MCHC ([…], time 28 day): 33.8%
MCV ([…], time 28 day): 57.9 fL
Mono ([…], time 28 day): 4.8%
Neu ([…], time 28 day): 9.8%
PT ([…], time 28 day): 14.8 s
Plat ([…], time 28 day): 86 x10_4/uL
RBC ([…], time 28 day): 791.8 x10_4/ul
Ret ([…], time 28 day): 0.7%
WBC ([…], time 28 day): 66.5 x10_2/uL
KIDNEY_L ([…], time 7 day): 0.9 g
KIDNEY_R ([…], time 7 day): 0.9 g
KIDNEY_TOTAL ([…], time 7 day): 1.8 g
KIDNEY_L ([…], time 14 day): 0.9 g
KIDNEY_R ([…], time 14 day): 0.9 g
KIDNEY_TOTAL ([…], time 14 day): 1.9 g
KIDNEY_L ([…], time 28 day): 0.8 g
KIDNEY_R ([…], time 28 day): 0.8 g
KIDNEY_TOTAL ([…], time 28 day): 1.6 g
LIVER ([…], time 7 day): 12.7 g
LIVER ([…], time 14 day): 12 g
LIVER ([…], time 28 day): 9.8 g
A/G ([…], time 7 day): 1.8
ALP ([…], time 7 day): 839.6 IU/L
ALT ([…], time 7 day): 29.6 IU/L
AST ([…], time 7 day): 57.8 IU/L
BUN ([…], time 7 day): 20.6 mg/dL
CRE ([…], time 7 day): 0.5 mg/dL
Ca ([…], time 7 day): 11.5 mg/dL
Cl ([…], time 7 day): 106.8 meq/L
DBIL ([…], time 7 day): 0.016 mg/dL
GLC ([…], time 7 day): 172 mg/dL
IP ([…], time 7 day): 6.8 mg/dL
K ([…], time 7 day): 4.5 meq/L
LDH ([…], time 7 day): 161.4 IU/L
Na ([…], time 7 day): 140.2 meq/L
PL ([…], time 7 day): 166.6 mg/dL
RALB ([…], time 7 day): 4.3 g/dL
TBIL ([…], time 7 day): 0.3 mg/dL
TC ([…], time 7 day): 101.6 mg/dL
TG ([…], time 7 day): 79.6 mg/dL
TP ([…], time 7 day): 6.7 g/dL
gamma-GTP ([…], time 7 day): 1.2 IU/L
A/G ([…], time 14 day): 1.8
ALP ([…], time 14 day): 489.4 IU/L
ALT ([…], time 14 day): 27.8 IU/L
AST ([…], time 14 day): 56.4 IU/L
BUN ([…], time 14 day): 23.4 mg/dL
CRE ([…], time 14 day): 0.7 mg/dL
Ca ([…], time 14 day): 11.4 mg/dL
Cl ([…], time 14 day): 107.4 meq/L
DBIL ([…], time 14 day): 0.016 mg/dL
GLC ([…], time 14 day): 176.4 mg/dL
IP ([…], time 14 day): 6.3 mg/dL
K ([…], time 14 day): 4 meq/L
LDH ([…], time 14 day): 152.8 IU/L
Na ([…], time 14 day): 141.8 meq/L
PL ([…], time 14 day): 144.8 mg/dL
RALB ([…], time 14 day): 4.4 g/dL
TBIL ([…], time 14 day): 0.2 mg/dL
TC ([…], time 14 day): 94.2 mg/dL
TG ([…], time 14 day): 32.6 mg/dL
TP ([…], time 14 day): 7 g/dL
gamma-GTP ([…], time 14 day): 1.6 IU/L
A/G ([…], time 28 day): 2
ALP ([…], time 28 day): 528 IU/L
ALT ([…], time 28 day): 34 IU/L
AST ([…], time 28 day): 65.4 IU/L
BUN ([…], time 28 day): 26.8 mg/dL
CRE ([…], time 28 day): 0.7 mg/dL
Ca ([…], time 28 day): 10.8 mg/dL
Cl ([…], time 28 day): 108 meq/L
DBIL ([…], time 28 day): 0.054 mg/dL
GLC ([…], time 28 day): 162 mg/dL
IP ([…], time 28 day): 5.5 mg/dL
K ([…], time 28 day): 4.1 meq/L
LDH ([…], time 28 day): 121.8 IU/L
Na ([…], time 28 day): 143.6 meq/L
PL ([…], time 28 day): 153 mg/dL
RALB ([…], time 28 day): 4.5 g/dL
TBIL ([…], time 28 day): 0.2 mg/dL
TC ([…], time 28 day): 101.2 mg/dL
TG ([…], time 28 day): 34.6 mg/dL
TP ([…], time 28 day): 6.8 g/dL
gamma-GTP ([…], time 28 day): 2.8 IU/L

Source: ChEMBL document CHEMBL3885861, “Open TG-GATES”
